Patent publication US20210380547A1, “UREA DERIVATIVES FOR TREATING AND/OR PREVENTING CANCER” (CENTRE NATIONAL DE LA RECHERCHE SCIENTIFIQUE, priority 2018, published 2021)
Read-outs that look alike come from different tables or passages of the source.

Assays:
[1] = tested on: A498; test: XTT cell viability assay, A498; format: cell-based, human; details: XTT assay (48 h), standard deviation of 10%, read-out: EC50 (μM) Kidney A498
Procedure: (§1) Fifty microliters of sodium 3′-[1-phenylaminocarbonyl)-3,4-tetrazolium]-bis(4-methoxy-6-nitro) benzene sulfonic acid hydrate (XTT) reagent was added to each well. The assay is based on the cleavage of the yellow tetrazolium salt XTT to form an orange formazan dye by metabolically active cells. The absorbance of the formazan product, reflecting cell viability, was measured at 490 nm. Each assay was performed in quadruplicate.
(§2) Compounds #1-#14 have been assayed as potential anti-proliferative agents against a panel of human breast head and neck, and kidney tumor cells and hematological malignancies, selected on the basis of their aggressiveness (e.g. incurable triple-negative breast cancer cells: MDA-MB-231; kidney ccRCC cells: RCC4, A498 and 786-O and 786R; head and neck cancer cells: CAL33, CAL33RR, CAL27, and CAL27RR; acute myeloid cell lines: OCI-AML2, OCI-AML3, MolM13, and MolM14; myelodysplastic cell line: SM1; and chronic myeloid cell line: CML). All these cell lines share as common denominator the expression of CXCR1 and CXCR2. The EC50 values have been measured by a XTT colorimetric assay, and compared to those of SB-225002, used as a reference; the results are listed in Table 1.

[2] = tested on: SKM1; test: XTT cell viability assay, SKM1; format: cell-based, human; details: XTT assay (48 h), standard deviation of 10%, read-out: EC50 (μM) MDS SKM1
Procedure: as §1, §2

[3] = tested on: MolM14; test: XTT cell viability assay, MolM14; format: cell-based, human; details: XTT assay (48 h), standard deviation of 10%, read-out: EC50 (μM) AML MolM14
Procedure: as §1, §2

[4] = tested on: MolM13; test: XTT cell viability assay, MolM13; format: cell-based, human; details: XTT assay (48 h), standard deviation of 10%, read-out: EC50 (μM) AML MolM13
Procedure: as §1, §2

[5] = tested on: 786-O; test: XTT cell viability assay, 786-O; format: cell-based, human; details: Homo sapiens, 786-0; XTT assay (48 h); standard deviation of 10%; read-out: EC50 (μM) Kidney 786-O
Procedure: (§3) A, B: Naive (786-O, A), and sunitinib-resistant (786-R, B) 786-O cells, were treated with compound #1 or sunitinib (1 to 10 μM) for 48 hr. Cell viability was measured by XTT assays;
(§4) D, E: 786-O (D), 786-R (E), were treated with 2.5 μM compound #1 or 2.5 μM sunitinib for 24 h to 96 h. The cells metabolism was measured by XTT assay;
as §1, §2

[6] = tested on: K562; test: XTT cell viability assay, K562; format: cell-based, human; details: XTT assay (48 h), standard deviation of 10%, read-out: EC50 (μM) CML K562
Procedure: as §1, §2

[7] = tested on: RCC4; test: XTT cell viability assay, RCC4; format: cell-based; details: Homo sapiens, XTT assay (48 h), standard deviation of 10%, read-out: EC50 (μM) Kidney RCC4
Procedure: as §1, §2

[8] = tested on: OCI-AML3; test: XTT cell viability assay, OCI-AML3; format: cell-based, human; details: XTT assay (48 h), standard deviation of 10%
Procedure: as §1, §2

[9] = tested on: MDA-MB-231; test: XTT cell viability assay, MDA-MB-231; format: cell-based; details: Homo sapiens, XTT assay (48 h), standard deviation of 10%, read-out: EC50 (μM) Breast MDA-MB-231
Procedure: as §1, §2

[10] = tested on: OCI-AML2; test: XTT cell viability assay, OCI-AML2; format: cell-based, human; details: XTT assay (48 h), standard deviation of 10%, read-out: EC50 (μM) AML OCI-AML2
Procedure: as §1, §2

[11] = tested on: 786R; test: XTT cell viability assay, 786R (sunitinib-resistant); format: cell-based, human; details: Homo sapiens, 48 h, XTT assay (48 h); sunitinib-resistant; standard deviation of 10%; read-out: EC50 (μM) Kidney 786R
Procedure: as §3, §4, §1, §2

[12] = tested on: CAL33RR; test: XTT cell viability assay, CAL33RR; format: cell-based; details: Homo sapiens, light or radiation study; XTT assay (48 h); resistant to irradiation and cisplatin; standard deviation of 10%; read-out: EC50 (μM) Head and Neck CAL33RR
Procedure: as §1, §2

[13] = tested on: CAL27; test: XTT cell viability assay, CAL27; format: cell-based, human; details: Homo sapiens, CAL-27, 48 h, XTT assay (48 h); standard deviation of 10%; read-out: EC50 (μM) Head and Neck CAL27
Procedure: (§5) A, B: Naive (Cal27, A), and cisplatine-resistant (Cal27R, B) Cal27 cells, were treated with compound #1 or cisplatine (1 to 10 μM) for 48 hr. Cell viability was measured by XTT assays;
(§6) C, D: Cal27 (C), cal27R (D), were treated with 2.5 μM compound #1, 2.5 μM cisplatin for 24 h to 96 h. The metabolism of cells was measured by XTT assay.
as §1, §2

[14] = tested on: CAL33; test: XTT cell viability assay, CAL33; format: cell-based; details: Homo sapiens, CAL-33; XTT assay (48 h); standard deviation of 10%; read-out: EC50 (μM) Head and Neck CAL33
Procedure: as §1, §2

[15] = tested on: CAL27RR; test: XTT cell viability assay, CAL27RR (cisplatin-resistant); format: cell-based, human; details: Homo sapiens, light or radiation study; XTT assay (48 h); resistant to irradiation and cisplatin; standard deviation of 10%; read-out: EC50 (μM) Head and Neck CAL27RR
Procedure: as §5, §6, §1, §2

| SMILES | EC50 ([2]; Homo sapiens, SKM-1) | EC50 ([3]; Homo sapiens, MOLM-14) | EC50 ([4]; Homo sapiens, MOLM-13) | EC50 [5] | EC50 ([6]; Homo sapiens, K562) | EC50 ([8]; Homo sapiens, OCI-AML-3) | EC50 [9] | EC50 ([10]; Homo sapiens, OCI-AML2) | EC50 ([1]; Homo sapiens, A498) | EC50 [7] | EC50 [11] | EC50 [12] | EC50 [13] | EC50 [14] | other results |
| --- | --- | --- | --- | --- | --- | --- | --- | --- | --- | --- | --- | --- | --- | --- | --- |
| O=C(Nc1ccccc1)Nc1nc2ccccc2[nH]1 [Compound #5, 1-(1H-benzo[d]imidazol-2-yl)-3-phenylurea] | 25 µM | 20 µM | 25 µM | 20 µM | 10 µM | 25 µM | 12 µM | 18 µM | 10 µM | 25 µM |  |  |  |  |  |
| O=C(Nc1ccccc1)Nc1nc2ccccc2o1 [Compound #5-1, 1-(benzo[d]oxazol-2-yl)-3-phenylurea, reference compound] | > 25 µM | > 25 µM | > 25 µM | > 25 µM | > 25 µM | > 25 µM | > 25 µM | > 25 µM | > 25 µM | > 25 µM |  |  |  |  |  |
| O=C(Nc1ccc(Cl)cc1)Nc1nc2ccccc2[nH]1 [Compound #6, 1-(1H-benzo[d]imidazol-2-yl)-3-(4-chlorophenyl)urea] | > 25 µM | 20 µM | > 25 µM | 20 µM | 12 µM | 22 µM | 20 µM | 20 µM | 9 µM | 20 µM |  |  |  |  |  |
| O=C(Nc1ccc(Cl)cc1)Nc1nc2ccccc2s1 [Compound #9, 1-(benzo[d]thiazol-2-yl)-3-(4-chlorophenyl)urea] | > 25 µM | > 25 µM | > 25 µM | > 25 µM | 25 µM | > 25 µM | > 25 µM | > 25 µM | 25 µM | 20 µM |  |  |  |  |  |
| O=C(Nc1cccc(Cl)c1)Nc1nc2ccccc2s1 [Compound #8, 1-(benzo[d]thiazol-2-yl)-3-(3-chlorophenyl)urea] | > 25 µM | > 25 µM | > 25 µM | > 25 µM | 25 µM | > 25 µM | > 25 µM | > 25 µM | > 25 µM | 20 µM |  |  |  |  |  |
| O=C(Nc1nc2ccccc2s1)Nc1ccccc1Cl [Compound #7, 1-(benzo[d]thiazol-2-yl)-3-(2-chlorophenyl)urea] | > 25 µM | > 25 µM | > 25 µM | > 25 µM | > 25 µM | > 25 µM | > 25 µM | 10 µM | > 25 µM | 25 µM |  |  |  |  |  |
| O=C(Nc1ccc([N+](=O)[O-])cc1O)Nc1ccccc1Br [SB-225002, reference compound] |  |  |  |  |  |  |  |  |  |  |  |  |  |  | EC50 [1]: 70 µM; EC50 [2]: > 100 µM; EC50 [3]: 90 µM; EC50 [4]: > 100 µM; EC50 [6]: > 100 µM; EC50 ([8]; read-out: EC50 (μM) AML OCI-AML3): 90 µM; EC50 [10]: > 100 µM |
| COc1ccc(NC(=O)Nc2nc3ccccc3s2)cc1 [Compound #10, 1-(benzo[d]thiazol-2-yl)-3-(4-methoxyphenyl)urea] | > 25 µM | > 25 µM | > 25 µM | > 25 µM | 25 µM | > 25 µM | > 25 µM | > 25 µM | > 25 µM | 15 µM |  |  |  |  |  |

More lines, main results first:

| EC50 ([2]; Homo sapiens, SKM-1) | EC50 ([3]; Homo sapiens, MOLM-14) | EC50 ([4]; Homo sapiens, MOLM-13) | EC50 [5] | EC50 ([6]; Homo sapiens, K562) | EC50 ([8]; Homo sapiens, OCI-AML-3) | EC50 [9] | EC50 ([10]; Homo sapiens, OCI-AML2) | SMILES | EC50 ([1]; Homo sapiens, A498) | EC50 [7] | EC50 [11] | EC50 [12] | EC50 [13] | EC50 [14] | other results |
| --- | --- | --- | --- | --- | --- | --- | --- | --- | --- | --- | --- | --- | --- | --- | --- |
|  |  |  | 15 µM |  |  |  |  | O=C(Nc1nc2ccc([N+](=O)[O-])cc2s1)Nc1ccccc1Br [Compound #13, 1-(2-bromophenyl)-3-(6-nitrobenzo[d]thiazol-2-yl)urea] | 20 µM | 25 µM | 14 µM | > 25 µM | > 25 µM | 8 µM |  |
| 25 µM | 10 µM | 15 µM | 15 µM | 25 µM | 10 µM | > 25 µM | > 25 µM | Cc1ccc2nc(NC(=O)Nc3ccccc3Cl)sc2c1 [Compound #4, 1-(2-chlorophenyl)-3-(6-methylbenzo[d]thiazol-2-yl)urea] | 15 µM | > 25 µM |  |  |  |  |  |
|  |  |  | 4 µM |  |  |  |  | O=C(Nc1cccc(Cl)c1)Nc1nc2ccc([N+](=O)[O-])cc2[nH]1 [Compound #14, 1-(3-chlorophenyl)-3-(6-nitro-1H-benzo[d]imidazol-2-yl)urea] | 5 µM | 3 µM | 4 µM | 25 µM | 15 µM | 15 µM | EC50 [15]: 10 µM |
|  |  |  | 5 µM |  |  |  |  | O=C(Nc1ccc(Br)cc1)Nc1nc2ccc([N+](=O)[O-])cc2s1 [Compound #12, 1-(4-bromophenyl)-3-(6-nitrobenzo[d]thiazol-2-yl)urea] | 7 µM | 7 µM | 5 µM | 20 µM | 5 µM | < 2.5 µM | EC50 [15]: 2.5 µM |
|  |  |  | 5 µM |  |  |  |  | O=C(Nc1cc(Cl)cc(Cl)c1)Nc1nc2ccc([N+](=O)[O-])cc2s1 [Compound #11, 1-(3,5-dichlorophenyl)-3-(6-nitrobenzo[d]thiazol-2-yl)urea] | 2.5 µM | 2 µM | 5 µM | 4 µM | 2.5 µM | 4 µM | EC50 [15]: 2.5 µM |
